Five molecules from ChEMBL document CHEMBL1201862, “PubChem BioAssay data set” (2004) can be followed below.

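Five concentrations, 48 hours, 96-well plates. Abbreviation: GI50, concentration required for 50% inhibition of growth.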 Active and inactive are the calls of the source. No stated cut-off is given here; in the data, active = GI50 up to about 1.1 µM and inactive = higher. Square brackets hold non-standard residues; d marks the D form. Peptide text beside a SMILES is read from it. * marks the point of attachment. ξ: configuration not given here. NMeN = CN[C@@H](CC(N)=O)C(=O)O; NMeV = CN[C@H](C(=O)O)C(C)C; ξNMeV = CNC(C(=O)O)C(C)C; Boc = CC(C)(C)OC(=O)*; ξNMeA = CNC(C)C(=O)O Bounds are passed on as bounds.

Some test systems named below: SNB-19; EKVX; NCI-H23; TK-10; LOX IMVI; A549; SK-OV-3; SN12C; M14; CAKI-1; OVCAR-8; SR; HOP-62; T47D; UACC-257; DU-145; OVCAR-4; HT-29; SK-MEL-2; OVCAR-5.
What all share (assay): NCI anticancer screen, dose series, 48 h

With `CC[S+]1C2=C(CC(C)(C)CC2=O)[N-]c2ccccc21` (stereo not given), the GI50 in the assay on SNB-19, in the assay with EKVX, in the assay on NCI-H23, in the assay with TK-10, in the assay with LOX IMVI and in the assay with A549 was > 100 µM (inactive) in each case. The GI50 in the assay on SK-OV-3, in the assay with SN12C, in the assay with M14, in the assay with CAKI-1, with OVCAR-8 and in the assay with SR was > 100 µM (inactive) in each case. For the same molecule, the GI50 with HOP-62, in the assay with T47D, in the assay on UACC-257, in the assay with DU-145, in the assay on OVCAR-4 and in the assay on HT-29 was > 100 µM (inactive) throughout. The GI50 in the assay with SK-MEL-2 and in the assay with OVCAR-5 was > 100 µM (inactive) throughout.

In the case of `CCCCCCCCCCCCCCCC(=O)OCC1OC(OC)C2NP(=O)(N(CCCl)CCCl)OC1C2O` (stereo not given), the GI50 with SNB-19 was 2.61 µM (inactive); in the assay on EKVX it was 22 µM (inactive); in the assay with NCI-H23 it was 1.21 µM (inactive); with TK-10, 10.9 µM (inactive); in the assay with LOX IMVI, 1.28 µM (inactive); in the assay on A549 it was 6.11 µM (inactive). Further, the GI50 was 11.5 µM (inactive) with SK-OV-3; 1.05 µM (active) in the assay with SN12C; 4.31 µM (inactive) in the assay on M14; 0.752 µM (active) in the assay with CAKI-1; 2.51 µM (inactive) with OVCAR-8; 0.0177 µM (active) with SR. Further, the GI50 with HOP-62 was 1 µM (active); in the assay on T47D, 2.73 µM (inactive); with UACC-257 it was 12.1 µM (inactive); in the assay with DU-145, 7.41 µM (inactive); in the assay on OVCAR-4, 8.51 µM (inactive); in the assay with HT-29 it was 17.1 µM (inactive). The GI50 in the assay with SK-MEL-2 was 8.3 µM (inactive); with OVCAR-5, 20.8 µM (inactive).

For `O=C1c2ccccc2-c2nc(-c3ccccc3)cc3c2c1nc1ccccc13`, the GI50 with SNB-19 is 19.4 µM (inactive); in the assay with EKVX, 23.5 µM (inactive); with NCI-H23 it was 3.6 µM (inactive); in the assay on TK-10, 15.3 µM (inactive); in the assay on LOX IMVI it was 1.77 µM (inactive); in the assay with A549, 16.9 µM (inactive). The GI50 in the assay on SK-OV-3 is 19.5 µM (inactive); with SN12C, 12.9 µM (inactive); in the assay on M14, 5.55 µM (inactive); with CAKI-1, 27.2 µM (inactive); with OVCAR-8, 16.4 µM (inactive); with SR, 2.11 µM (inactive). The GI50 with HOP-62 is 16.7 µM (inactive); with T47D it was 21.5 µM (inactive); with UACC-257, 14.2 µM (inactive); in the assay with DU-145, 13.9 µM (inactive); with OVCAR-4, 26.7 µM (inactive); in the assay on HT-29, 13.2 µM (inactive). For the same molecule, the GI50 with SK-MEL-2 is 20 µM (inactive); with OVCAR-5, 29.4 µM (inactive).

Regarding `O=C1NN=C2C=C(c3ccc(Cl)cc3)CC(c3cccc(Cl)c3)C12` (stereo not given), the GI50 was 15.1 µM (inactive) in the assay on SNB-19; 22.1 µM (inactive) with EKVX; 32.2 µM (inactive) in the assay with NCI-H23; 20.1 µM (inactive) with TK-10; 18.5 µM (inactive) in the assay with LOX IMVI; 16.4 µM (inactive) in the assay with A549. Also, the GI50 in the assay with SK-OV-3 was 25.1 µM (inactive); in the assay with SN12C, 22.5 µM (inactive); in the assay with M14 it was 38.3 µM (inactive); in the assay with CAKI-1, 34.8 µM (inactive); with OVCAR-8, 45.4 µM (inactive); in the assay on SR, 18.2 µM (inactive). For the same molecule, the GI50 was 34.4 µM (inactive) in the assay with HOP-62; 60.7 µM (inactive) in the assay with T47D; 17.9 µM (inactive) in the assay on UACC-257; 64.3 µM (inactive) in the assay on DU-145; 17.2 µM (inactive) in the assay with OVCAR-4; 21.9 µM (inactive) in the assay with HT-29. Also, the GI50 in the assay with SK-MEL-2 is 19.7 µM (inactive); in the assay with OVCAR-5, 26.5 µM (inactive).

On to `COC(=O)C(C)N(C)C(=O)[C@H](CC(N)=O)N(C)C(=O)[C@@H]1CCCN1C(=O)[C@H](C(C)C)N(C)C(=O)C(C(C)C)N(C)C(=O)[C@@H](NC(=O)OC(C)(C)C)C(C)C` (stereo not given in full) (Boc-V[ξNMeV][NMeV]P[NMeN][ξNMeA]-OMe), for which the GI50 in the assay on SNB-19 was > 50 µM (inactive); with EKVX, > 50 µM (inactive); in the assay with NCI-H23, > 50 µM (inactive); in the assay with TK-10, > 50 µM (inactive); in the assay with LOX IMVI, 23.9 µM (inactive); with A549, 37.5 µM (inactive). In addition, the GI50 with SK-OV-3 is > 50 µM (inactive); in the assay with SN12C, > 50 µM (inactive); in the assay with M14, > 50 µM (inactive); with CAKI-1 it was > 50 µM (inactive); with OVCAR-8 it was > 100 µM (inactive); in the assay on SR, > 100 µM (inactive). Moreover, the GI50 with HOP-62 was > 50 µM (inactive); in the assay with T47D, > 50 µM (inactive); in the assay with UACC-257, > 50 µM (inactive); with DU-145, > 50 µM (inactive); in the assay on OVCAR-4, > 100 µM (inactive); in the assay on HT-29, > 50 µM (inactive). The GI50 in the assay on SK-MEL-2 and with OVCAR-5 was > 50 µM (inactive) each time.
